Test results from ChEMBL document CHEMBL3046758, “Biological evaluation of novel 1,4-dithiine derivatives as potential antimicrobial agents” (Med Chem Res, 2011).
In brackets after ≈: the same amount, converted by molar mass.

Key:
[1] = Cytotoxicity against Homo sapiens (human) MT4 cells containing integrated HTLV-1 genome after 96 hr by MTT assay; format: cell-based
[2] = Selectivity index, ratio of CC50 for green monkey Vero76 cells to EC50 for HSV1; design: species or system Vero 76
Pseudomonas aeruginosa = test: Antibacterial activity against Pseudomonas aeruginosa DSM 1117 after 16 to 20 hr by broth microdilution method; format: functional
[3] = Cytotoxicity against Chlorocebus aethiops (African green monkey) Vero76 cells after 48 to 120 hr by MTT assay; format: cell-based, Vero 76; conditions: chlorocebus sabaeus
[4] = Cytotoxicity against Cricetinae BHK21 (hamster normal kidney fibroblast) cells after 48 to 120 hr by MTT assay; format: cell-based, Mesocricetus auratus, BHK-21; conditions: BHK21 cells (normal kidney fibroblasts)
Yellow fever virus = test: Antiviral activity against Yellow fever virus infected BHK21 cells assessed as inhibition of virus-induced cytopathogenicity after 3 to 4 days by MTT assay; format: functional, organism-based; conditions: BHK-21
Vaccinia virus = test: Antiviral activity against Vaccinia virus infected African green monkey Vero76 cells assessed as reduction of virus-induced plaque reduction after 3 days by MTT assay; format: functional, organism-based; conditions: Orthopoxvirus vaccinia, Vero 76, 72 h
Human alphaherpesvirus 1 = test: Antiviral activity against Human herpesvirus 1 infected African green monkey Vero76 cells assessed as reduction of virus-induced plaque reduction after 3 days by MTT assay; format: functional, organism-based; conditions: Human alphaherpesvirus 1, Vero 76, 72 h
Candida albicans = test: Antifungal activity against Candida albicans DSM 1386 after 24 to 48 hr by broth microdilution method; format: functional
[5] = system: Human immunodeficiency virus 1; test: Antiviral activity against Human immunodeficiency virus 1 infected human MT4 cells assessed as inhibition of virus-induced cytopathogenicity after 4 days by MTT assay; format: functional, organism-based; conditions: Human immunodeficiency virus 1, MT4, 96 h
[6] = system: Mammalian orthoreovirus 1; test: Antiviral activity against Mammalian orthoreovirus 1 infected BHK21 cells assessed as inhibition of virus-induced cytopathogenicity after 3 to 4 days by MTT assay; format: functional, organism-based; conditions: Mammalian orthoreovirus 1, BHK-21
Coxsackievirus B2 = test: Antiviral activity against Human coxsackievirus B2 infected African green monkey Vero76 cells assessed as reduction of virus-induced plaque reduction after 3 days by MTT assay; format: functional, organism-based; conditions: Enterovirus B, Vero 76, 72 h
Staphylococcus aureus = test: Antibacterial activity against Staphylococcus aureus DSM 2569 after 16 to 20 hr by broth microdilution method; format: functional
[7] = system: Bovine viral diarrhea virus 1; test: Antiviral activity against Bovine viral diarrhea virus 1 infected MDBK cells assessed as inhibition of virus-induced cytopathogenicity after 3 to 4 days by MTT assay; format: functional, organism-based; conditions: Bovine viral diarrhea virus isolates and strains
[8] = Cytotoxicity against Bos taurus MDBK cells after 48 to 120 hr by MTT assay; format: cell-based; conditions: cattle
[9] = system: Vesicular stomatitis virus; test: Antiviral activity against Vesicular stomatitis virus infected african green monkey Vero76 cells assessed as reduction of virus-induced plaque reduction after 3 days by MTT assay; format: functional, organism-based; conditions: Vero 76, 72 h
Poliovirus 1 = test: Antiviral activity against Human poliovirus 1 strain Sabin infected African green monkey Vero76 cells assessed as reduction of virus-induced plaque reduction after 2 days by MTT assay; format: functional, organism-based; conditions: Enterovirus C, Vero 76, 48 h
Aspergillus niger = test: Antifungal activity against Aspergillus niger DSM 1988 after 24 to 48 hr by broth microdilution method; format: functional
[10] = Selectivity index, ratio of CC50 for green monkey Vero76 cells to EC50 for Coxsackievirus B2; format: toxicity, cell-based, Vero 76; conditions: read-out: Ratio CC50/EC50
[11] = Selectivity index, ratio of CC50 for green monkey Vero76 cells to EC50 for Yellow fever virus; format: toxicity, cell-based, Vero 76; conditions: read-out: Ratio CC50/EC50

Row | SMILES | CC50 at 96 h [1] | MIC (Pseudomonas aeruginosa) | MIC (Candida albicans) | MIC (Staphylococcus aureus) | MIC (Aspergillus niger) | also measured
1 | O=C1C2=C(SCCS2)C(=O)N1CCCCN1CCN(c2ccccc2O)CC1 | > 100 µM | – | – | – | – | –
2 | O=C1C2=C(SCCS2)C(=O)N1CCCCN1CCN(c2ncccn2)CC1 | > 100 µM | – | – | – | – | –
3 | COc1ccccc1N1CCN(CCCCN2C(=O)C3=C(SCCS3)C2=O)CC1 | > 100 µM | – | – | – | – | –
4 | O=C1C2=C(SCCS2)C(=O)N1CCCN1CCN(c2ccccc2O)CC1 | > 100 µM | – | – | – | – | –
5 | COc1ccccc1N1CCN(CCCN2C(=O)C3=C(SCCS3)C2=O)CC1 | > 100 µM | – | – | – | – | –
6 | O=C1C2=C(SCCS2)C(=O)N1CCCCN1CCN(Cc2ccccc2)CC1 | > 100 µM | > 100 µM | > 100 µM | > 100 µM | > 100 µM | Ratio CC50/EC50 [2]: >3.45; CC50 [3]: > 100 µM; CC50 [4]: > 100 µM; EC50 (Yellow fever virus): > 100 µM; EC50 (Vaccinia virus): > 100 µM; EC50 (Human alphaherpesvirus 1): 29 µM; EC50 [5]: > 100 µM; EC50 [6]: > 100 µM; EC50 (Coxsackievirus B2): > 100 µM; EC50 [7]: > 100 µM; CC50 [8]: > 100 µM; EC50 [9]: > 100 µM; EC50 (Poliovirus 1): > 100 µM
7 | O=C1C2=C(SCCS2)C(=O)N1CCCCN1CCN(c2ccc(F)cc2)CC1 | > 100 µM | > 100 µM | > 100 µM | > 100 µM | > 100 µM | CC50 [3]: > 100 µM; CC50 [4]: > 100 µM; EC50 (Yellow fever virus): > 100 µM; EC50 (Vaccinia virus): > 100 µM; EC50 (Human alphaherpesvirus 1): > 100 µM; EC50 [5]: > 100 µM; EC50 [6]: > 100 µM; EC50 (Coxsackievirus B2): 21 µM; selectivity ratio [10]: > 4.76; EC50 [7]: > 100 µM; CC50 [8]: > 100 µM; EC50 [9]: > 100 µM; EC50 (Poliovirus 1): > 100 µM
8 | O=C1C2=C(SCCS2)C(=O)N1CCCCN1CCN(c2ccccn2)CC1 | > 100 µM | > 100 µM | > 100 µM | > 100 µM | > 100 µM | CC50 [3]: > 100 µM; CC50 [4]: > 100 µM; EC50 (Yellow fever virus): > 100 µM; EC50 (Vaccinia virus): > 100 µM; EC50 (Human alphaherpesvirus 1): > 100 µM; EC50 [5]: > 100 µM; EC50 [6]: > 100 µM; EC50 (Coxsackievirus B2): 32 µM; selectivity ratio [10]: > 3.12; EC50 [7]: > 100 µM; CC50 [8]: > 100 µM; EC50 [9]: > 100 µM; EC50 (Poliovirus 1): > 100 µM
9 | O=C1C2=C(SCCS2)C(=O)N1CCCN1CCN(c2ccccn2)CC1 | > 100 µM | > 100 µM | > 100 µM | > 100 µM | > 100 µM | –
10 | O=C1C2=C(SCCS2)C(=O)N1CCCN1CCN(c2ccc(F)cc2)CC1 | > 100 µM | > 100 µM | > 100 µM | > 100 µM | > 100 µM | CC50 [3]: 96 µM; CC50 [4]: > 100 µM; EC50 (Yellow fever virus): 52 µM; EC50 (Vaccinia virus): > 96 µM; EC50 (Human alphaherpesvirus 1): > 96 µM; EC50 [5]: > 100 µM; EC50 [6]: > 100 µM; EC50 (Coxsackievirus B2): 20 µM; selectivity ratio [11]: > 1.92; selectivity ratio [10]: > 4.8; EC50 [7]: > 100 µM; CC50 [8]: > 100 µM; EC50 [9]: > 96 µM; EC50 (Poliovirus 1): > 96 µM
11 | O=C1OC(=O)C2=C1SCCS2 | – | > 100 µM | > 100 µM | > 100 µM | > 100 µM | –
12 | O=C1NC(=O)C2=C1SCCS2 | > 100 µM | > 100 µM | > 100 µM | > 100 µM | > 100 µM | –
13 | CN(C)CC(O)CN1C(=O)C2=C(SCCS2)C1=O (configuration not stated) | > 100 µM | > 100 µM | > 100 µM | > 100 µM | > 100 µM | –
14 | CCN(CC)CC(O)CN1C(=O)C2=C(SCCS2)C1=O (configuration not stated) | > 100 µM | > 100 µM | > 100 µM | > 100 µM | > 100 µM | –
15 | CC(C)(C)NCC(O)CN1C(=O)C2=C(SCCS2)C1=O (configuration not stated) | > 100 µM | > 100 µM | > 100 µM | > 100 µM | > 100 µM | –
16 | O=C1C2=C(SCCS2)C(=O)N1CC(O)CN1CCCCC1 (configuration not stated) | > 100 µM | > 100 µM | > 100 µM | > 100 µM | > 100 µM | –
17 | CC1CCN(CC(O)CN2C(=O)C3=C(SCCS3)C2=O)CC1 (configuration not stated) | > 100 µM | > 100 µM | > 100 µM | > 100 µM | > 100 µM | –
18 | O=C1C2=C(SCCS2)C(=O)N1CC(O)CN1CCN(c2ccccc2)CC1 (configuration not stated) | > 100 µM | > 100 µM | > 100 µM | > 100 µM | > 100 µM | –
19 | O=C1C2=C(SCCS2)C(=O)N1CC(O)CN1CCN(c2ccc(F)cc2)CC1 (configuration not stated) | > 100 µM | > 100 µM | > 100 µM | > 100 µM | > 100 µM | CC50 [3]: > 100 µM; CC50 [4]: > 100 µM; EC50 (Yellow fever virus): 80 µM; EC50 (Vaccinia virus): > 100 µM; EC50 (Human alphaherpesvirus 1): > 100 µM; EC50 [5]: > 100 µM; EC50 [6]: > 100 µM; EC50 (Coxsackievirus B2): > 100 µM; selectivity ratio [11]: > 1.25; EC50 [7]: > 100 µM; CC50 [8]: > 100 µM; EC50 [9]: > 100 µM; EC50 (Poliovirus 1): > 100 µM
20 | O=C1C2=C(SCCS2)C(=O)N1CC(O)CN1CCN(c2ccccn2)CC1 (configuration not stated) | > 100 µM | > 100 µM | > 100 µM | > 100 µM | > 100 µM | –
21 | COc1ccccc1N1CCN(CC(O)CN2C(=O)C3=C(SCCS3)C2=O)CC1 (configuration not stated) | > 100 µM | > 100 µM | > 100 µM | > 100 µM | > 100 µM | CC50 [3]: > 100 µM; CC50 [4]: > 100 µM; EC50 (Yellow fever virus): 75 µM; EC50 (Vaccinia virus): > 100 µM; EC50 (Human alphaherpesvirus 1): > 100 µM; EC50 [5]: > 100 µM; EC50 [6]: > 100 µM; EC50 (Coxsackievirus B2): > 100 µM; selectivity ratio [11]: > 1.33; EC50 [7]: > 100 µM; CC50 [8]: > 100 µM; EC50 [9]: > 100 µM; EC50 (Poliovirus 1): > 100 µM
22 | C#C[C@@]1(O)[C@H](O)[C@@H](CO)O[C@H]1n1ccc(N)nc1=O [2'-ETHYNYL-D-CYTIDINE] | – | – | – | – | – | EC50 (Coxsackievirus B2): 23 µM; EC50 (Poliovirus 1): 18 µM
23 | O=C(O)c1cn(C2CC2)c2cc(N3CCNCC3)c(F)cc2c1=O [CIPROFLOXACIN] | – | 0.8 µM (≈ 0.265 µg/mL) | – | 4 µM (≈ 1.33 µg/mL) | – | –
24 | Clc1ccc(COC(Cn2ccnc2)c2ccc(Cl)cc2Cl)c(Cl)c1 (configuration not stated) [MICONAZOLE] | – | – | 0.8 µM (≈ 0.333 µg/mL) | – | 20 µM (≈ 8.32 µg/mL) | –
25 | COc1c(C)c2c(c(O)c1C/C=C(\C)CCC(=O)O)C(=O)OC2 [MYCOPHENOLIC ACID] | – | – | – | – | – | EC50 (Vaccinia virus): 1.8 µM
26 | Cc1cn([C@H]2C[C@H](N=[N+]=[N-])[C@@H](CO)O2)c(=O)[nH]c1=O [ZIDOVUDINE] | 50 µM | – | – | – | – | EC50 [5]: 0.01 µM
